In article PMC10461478, “The chemical profiling of Salvia plebeia during different growth periods and the biosynthesis of its main flavonoids ingredients” (Frontiers in Plant Science, 2023):

Assays:
SpCHS1 = biological target: T1, SpCHS1 (Salvia plebeia, UniProt A0AA50A905); test: HPLC-DAD / UPLC-Q-TOF-MS of E. coli culture extract; type: cell-based; conditions: substrate formed in situ by co-expressed RtTAL and Pt4CL from fed tyrosine; product naringenin chalcone
T1 construct: gene CHS1; ORF in pET28a, co-expressed in E. coli with RtTAL and Pt4CL (substrate supply)
T1 sequence (A0AA50A905 1-390): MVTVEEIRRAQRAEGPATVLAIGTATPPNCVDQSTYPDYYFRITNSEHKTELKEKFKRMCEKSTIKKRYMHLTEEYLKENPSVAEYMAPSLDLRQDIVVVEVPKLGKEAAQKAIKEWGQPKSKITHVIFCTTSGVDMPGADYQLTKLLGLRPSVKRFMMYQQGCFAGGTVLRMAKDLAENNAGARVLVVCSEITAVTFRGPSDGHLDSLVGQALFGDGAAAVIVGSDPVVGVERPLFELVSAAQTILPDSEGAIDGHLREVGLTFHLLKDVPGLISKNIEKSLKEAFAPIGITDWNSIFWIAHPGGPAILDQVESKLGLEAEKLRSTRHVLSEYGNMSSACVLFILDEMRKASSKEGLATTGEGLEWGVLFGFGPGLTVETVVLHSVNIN

SpF6H1 = biological target: T2, SpF6H1 (Salvia plebeia, UniProt A0AA49X7K6); test: HPLC-DAD / UPLC-Q-TOF-MS product detection; type: biochemical; conditions: 1 mM NADPH, 0.5 mM GSH, 100 mM Tris-HCl, 28 °C, 12 h; AtCPR co-expressed; product scutellarein
T2 construct: gene F6H1; ORF in pET32a (Trx/His tag), E. coli; co-expressed with AtCPR; with NADPH--cytochrome P450 reductase (Arabidopsis thaliana)
T2 sequence (A0AA49X7K6 1-521): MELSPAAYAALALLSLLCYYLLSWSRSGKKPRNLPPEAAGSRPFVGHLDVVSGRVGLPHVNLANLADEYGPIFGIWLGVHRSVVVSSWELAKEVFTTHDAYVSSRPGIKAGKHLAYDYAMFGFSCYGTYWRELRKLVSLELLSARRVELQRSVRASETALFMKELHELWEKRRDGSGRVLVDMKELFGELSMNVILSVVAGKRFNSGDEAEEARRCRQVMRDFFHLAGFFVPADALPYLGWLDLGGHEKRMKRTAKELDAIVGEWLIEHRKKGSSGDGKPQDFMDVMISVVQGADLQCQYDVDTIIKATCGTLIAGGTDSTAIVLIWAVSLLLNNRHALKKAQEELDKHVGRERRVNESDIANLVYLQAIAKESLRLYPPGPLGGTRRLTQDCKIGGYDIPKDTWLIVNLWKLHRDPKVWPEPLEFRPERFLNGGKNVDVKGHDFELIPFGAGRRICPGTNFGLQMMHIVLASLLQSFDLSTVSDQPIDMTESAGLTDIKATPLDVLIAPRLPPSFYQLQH

SpC4H = biological target: T3, SpC4H (Salvia plebeia, UniProt A0AA50AF12); test: HPLC-DAD / UPLC-Q-TOF-MS product detection; type: biochemical; conditions: 1 mM NADPH, 0.5 mM GSH, AtCPR added, 100 mM Tris-HCl, 28 °C, 12 h; product 4-coumaric acid
T3 construct: gene C4H; ORF in pET32a (Trx/His tag), E. coli BL21(DE3), Ni-NTA purified; AtCPR added; with NADPH--cytochrome P450 reductase (Arabidopsis thaliana)
T3 sequence (A0AA50AF12 entry or part of it): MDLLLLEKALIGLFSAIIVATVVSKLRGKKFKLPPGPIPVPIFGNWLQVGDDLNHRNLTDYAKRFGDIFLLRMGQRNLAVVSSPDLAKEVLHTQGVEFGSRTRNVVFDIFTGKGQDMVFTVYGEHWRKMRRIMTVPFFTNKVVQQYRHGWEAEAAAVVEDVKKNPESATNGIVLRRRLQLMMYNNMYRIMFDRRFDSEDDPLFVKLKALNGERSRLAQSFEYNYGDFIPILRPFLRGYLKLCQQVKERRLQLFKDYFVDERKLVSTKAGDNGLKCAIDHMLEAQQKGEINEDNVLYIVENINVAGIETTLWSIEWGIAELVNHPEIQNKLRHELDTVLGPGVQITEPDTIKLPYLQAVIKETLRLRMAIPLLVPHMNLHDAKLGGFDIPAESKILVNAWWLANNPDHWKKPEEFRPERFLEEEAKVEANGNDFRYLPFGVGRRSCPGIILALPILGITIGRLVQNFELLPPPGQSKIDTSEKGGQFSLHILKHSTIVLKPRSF

SpUGT2 = biological target: T4, SpUGT2 (Salvia plebeia, UniProt A0AA49XCW5); test: HPLC-DAD / UPLC-Q-TOF-MS product detection; type: biochemical; conditions: 1 mM UDP-glucose, 50 mM PBS, 30 °C, 4 h; product homoplantaginin
T4 construct: gene UGT2; ORF in pSJ8-MBP (MBP fusion), E. coli BL21(DE3), Ni-NTA purified
T4 sequence (A0AA49XCW5 1-478): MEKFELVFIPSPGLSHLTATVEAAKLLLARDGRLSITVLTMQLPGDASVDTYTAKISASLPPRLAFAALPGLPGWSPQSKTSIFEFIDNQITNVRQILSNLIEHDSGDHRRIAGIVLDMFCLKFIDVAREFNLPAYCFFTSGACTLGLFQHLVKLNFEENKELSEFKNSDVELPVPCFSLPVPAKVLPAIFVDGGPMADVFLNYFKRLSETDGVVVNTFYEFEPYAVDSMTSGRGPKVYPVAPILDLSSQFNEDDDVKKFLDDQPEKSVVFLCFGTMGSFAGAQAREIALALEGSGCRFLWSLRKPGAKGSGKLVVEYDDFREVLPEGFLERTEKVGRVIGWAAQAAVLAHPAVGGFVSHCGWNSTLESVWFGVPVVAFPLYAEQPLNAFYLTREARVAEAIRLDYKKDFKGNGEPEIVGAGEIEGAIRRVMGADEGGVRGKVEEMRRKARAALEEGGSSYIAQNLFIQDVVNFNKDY

SpUGT1 = biological target: T5, SpUGT1 (Salvia plebeia, UniProt A0AA49X7M2); test: HPLC-DAD / UPLC-Q-TOF-MS product detection; type: biochemical; conditions: 1 mM UDP-glucose, 50 mM PBS, 30 °C, 4 h; product homoplantaginin
T5 construct: gene UGT1; ORF in pSJ8-MBP (MBP fusion), E. coli BL21(DE3), Ni-NTA purified
T5 sequence (A0AA49X7M2 1-450): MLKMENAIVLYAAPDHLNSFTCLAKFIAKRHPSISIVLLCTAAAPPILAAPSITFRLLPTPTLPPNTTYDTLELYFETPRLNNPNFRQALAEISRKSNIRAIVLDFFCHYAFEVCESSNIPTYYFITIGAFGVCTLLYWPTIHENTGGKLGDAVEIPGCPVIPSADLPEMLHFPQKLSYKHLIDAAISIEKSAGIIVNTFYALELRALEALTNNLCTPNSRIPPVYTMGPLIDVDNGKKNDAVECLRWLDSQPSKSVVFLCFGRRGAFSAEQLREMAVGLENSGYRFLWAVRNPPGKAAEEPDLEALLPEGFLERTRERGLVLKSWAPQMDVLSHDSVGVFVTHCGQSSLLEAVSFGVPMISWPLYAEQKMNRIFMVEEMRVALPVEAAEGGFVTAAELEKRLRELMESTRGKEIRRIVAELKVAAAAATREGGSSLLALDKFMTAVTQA

SpUGT3 = biological target: T6, SpUGT3 (Salvia plebeia, UniProt A0AA49X848); test: HPLC-DAD / UPLC-Q-TOF-MS product detection; type: biochemical; conditions: 1 mM UDP-glucose, 50 mM PBS, 30 °C, 4 h; product homoplantaginin
T6 construct: gene UGT3; ORF in pSJ8-MBP (MBP fusion), E. coli BL21(DE3), Ni-NTA purified
T6 sequence (A0AA49X848 1-469): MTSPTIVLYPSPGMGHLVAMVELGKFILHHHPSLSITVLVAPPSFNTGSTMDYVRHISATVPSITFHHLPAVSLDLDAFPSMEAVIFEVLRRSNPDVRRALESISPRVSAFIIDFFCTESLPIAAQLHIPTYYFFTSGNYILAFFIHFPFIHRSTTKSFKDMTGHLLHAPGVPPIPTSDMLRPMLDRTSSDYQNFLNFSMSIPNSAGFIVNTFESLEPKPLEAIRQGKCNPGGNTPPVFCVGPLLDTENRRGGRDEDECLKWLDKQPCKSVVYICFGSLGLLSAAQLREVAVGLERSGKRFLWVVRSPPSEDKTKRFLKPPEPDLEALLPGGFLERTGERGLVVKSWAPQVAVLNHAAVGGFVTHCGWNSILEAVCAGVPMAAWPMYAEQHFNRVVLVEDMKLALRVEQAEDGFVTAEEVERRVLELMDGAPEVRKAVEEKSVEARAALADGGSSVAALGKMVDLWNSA

SpCHI = biological target: T7, SpCHI (Salvia plebeia, UniProt A0AA49X7E2); test: HPLC-DAD / UPLC-Q-TOF-MS product detection; type: biochemical; conditions: 100 mM PBS, 25 °C, 2 s; product naringenin
T7 construct: gene CHI; full ORF in pET28a (His tag), E. coli BL21(DE3), Ni-NTA purified
T7 sequence (A0AA49X7E2 1-225): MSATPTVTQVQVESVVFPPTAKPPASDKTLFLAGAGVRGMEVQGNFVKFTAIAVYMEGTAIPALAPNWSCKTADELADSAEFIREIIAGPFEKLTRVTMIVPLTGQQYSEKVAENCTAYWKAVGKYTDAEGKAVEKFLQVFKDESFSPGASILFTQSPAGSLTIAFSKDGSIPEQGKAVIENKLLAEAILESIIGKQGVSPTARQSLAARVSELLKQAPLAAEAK

SpFNS = biological target: T8, SpFNS (Salvia plebeia, UniProt A0AA49X7D7); test: HPLC-DAD / UPLC-Q-TOF-MS product detection; type: biochemical; conditions: 1 mM NADPH, 0.5 mM GSH, 100 mM Tris-HCl, 28 °C, 12 h; AtCPR co-expressed; product apigenin
T8 construct: gene FNS
T8 sequence (A0AA49X7D7 1-507): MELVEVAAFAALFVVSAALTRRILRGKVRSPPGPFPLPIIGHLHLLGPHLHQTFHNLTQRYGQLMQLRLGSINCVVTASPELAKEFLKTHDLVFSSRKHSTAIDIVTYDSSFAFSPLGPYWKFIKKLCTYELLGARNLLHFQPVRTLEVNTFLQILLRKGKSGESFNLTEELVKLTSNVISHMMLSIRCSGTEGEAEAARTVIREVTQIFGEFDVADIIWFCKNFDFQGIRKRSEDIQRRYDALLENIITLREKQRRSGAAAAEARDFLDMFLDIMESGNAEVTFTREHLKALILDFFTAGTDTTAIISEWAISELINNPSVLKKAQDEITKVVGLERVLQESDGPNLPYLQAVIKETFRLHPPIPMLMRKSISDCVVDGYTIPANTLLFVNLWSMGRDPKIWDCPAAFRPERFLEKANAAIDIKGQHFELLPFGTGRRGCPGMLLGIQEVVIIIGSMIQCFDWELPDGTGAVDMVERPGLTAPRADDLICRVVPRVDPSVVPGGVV

SpPAL = biological target: T9, SpPAL (Salvia plebeia, UniProt A0AA50AET4); test: HPLC-DAD / UPLC-Q-TOF-MS product detection; type: biochemical; conditions: 100 mM Tris-HCl, 37 °C, 8 h; product cinnamic acid
T9 construct: gene PAL; full ORF in pET28a (His tag), E. coli BL21(DE3), Ni-NTA purified
T9 sequence (A0AA50AET4 1-710): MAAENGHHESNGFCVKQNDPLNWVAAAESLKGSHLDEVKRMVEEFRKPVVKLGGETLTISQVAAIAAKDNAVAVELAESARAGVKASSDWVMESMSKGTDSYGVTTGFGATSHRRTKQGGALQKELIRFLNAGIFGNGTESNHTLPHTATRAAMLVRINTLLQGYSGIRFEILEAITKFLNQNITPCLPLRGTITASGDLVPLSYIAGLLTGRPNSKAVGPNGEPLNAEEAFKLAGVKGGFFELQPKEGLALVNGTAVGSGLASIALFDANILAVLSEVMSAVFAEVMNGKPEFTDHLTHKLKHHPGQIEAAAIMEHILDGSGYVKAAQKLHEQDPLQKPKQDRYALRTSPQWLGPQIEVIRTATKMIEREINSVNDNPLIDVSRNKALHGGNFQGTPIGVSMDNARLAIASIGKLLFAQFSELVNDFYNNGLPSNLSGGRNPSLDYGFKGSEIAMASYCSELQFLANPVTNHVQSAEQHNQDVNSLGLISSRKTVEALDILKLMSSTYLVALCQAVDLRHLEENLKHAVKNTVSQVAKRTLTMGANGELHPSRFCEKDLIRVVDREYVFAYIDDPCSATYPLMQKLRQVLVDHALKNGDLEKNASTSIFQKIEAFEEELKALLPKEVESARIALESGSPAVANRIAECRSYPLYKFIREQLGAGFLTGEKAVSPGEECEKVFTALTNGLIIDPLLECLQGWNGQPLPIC

SpF6OMT1 = biological target: T10, SpF6OMT1 (Salvia plebeia, UniProt A0AA49X7D9); test: HPLC-DAD / UPLC-Q-TOF-MS product detection; type: biochemical; conditions: 1 mM SAM, 1 mM MgCl2, 1 mM DTT, 100 mM Tris-HCl, 28 °C, 12 h; product hispidulin
T10 construct: gene F6OMT1; full ORF in pET28a (His tag), E. coli BL21(DE3), Ni-NTA purified
T10 sequence (A0AA49X7D9 1-222): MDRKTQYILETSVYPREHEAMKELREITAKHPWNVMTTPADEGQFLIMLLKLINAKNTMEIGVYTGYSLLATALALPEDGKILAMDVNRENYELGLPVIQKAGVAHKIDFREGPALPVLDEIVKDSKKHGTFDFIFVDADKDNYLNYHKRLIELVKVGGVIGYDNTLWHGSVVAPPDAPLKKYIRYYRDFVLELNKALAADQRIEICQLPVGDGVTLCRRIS

SpF6OMT2 = biological target: T11, SpF6OMT2 (Salvia plebeia, UniProt A0AA49X7F5); test: HPLC-DAD / UPLC-Q-TOF-MS product detection; type: biochemical; conditions: 1 mM SAM, 1 mM MgCl2, 1 mM DTT, 100 mM Tris-HCl, 28 °C, 12 h; product hispidulin
T11 construct: gene F6OMT2; full ORF in pET28a (His tag), E. coli BL21(DE3), Ni-NTA purified
T11 sequence (A0AA49X7F5 1-247): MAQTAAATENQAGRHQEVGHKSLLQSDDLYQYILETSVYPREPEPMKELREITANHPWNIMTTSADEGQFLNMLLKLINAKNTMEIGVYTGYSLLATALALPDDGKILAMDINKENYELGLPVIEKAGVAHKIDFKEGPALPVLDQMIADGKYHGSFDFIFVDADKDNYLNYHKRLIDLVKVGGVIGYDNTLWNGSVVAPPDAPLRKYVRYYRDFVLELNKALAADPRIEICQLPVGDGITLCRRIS

`CC(C)(COP(=O)(O)OP(=O)(O)OC[C@H]1O[C@@H](n2cnc3c(N)ncnc32)[C@H](O)[C@@H]1OP(=O)(O)O)[C@@H](O)C(=O)NCCC(=O)NCCSC(=O)/C=C/c1ccc(O)cc1` [4-coumaryl-CoA] was tested, and the “HPLC-DAD / UPLC-Q-TOF-MS of E. coli culture extract” value (SpCHS1) was “providing a sufficient substrate for the catalytic reaction of SpCHS”.

`O=c1cc(-c2ccc(O)cc2)oc2cc(O)cc(O)c12` [AG, apigenin] was tested, and the “HPLC-DAD / UPLC-Q-TOF-MS product detection” value (SpF6H1) was “SpF6H1 produced scutellarein from apigenin, a precursor of hispidulin”.

For `O=C(O)/C=C/c1ccccc1` [CiA, cinnamic acid], the “HPLC-DAD / UPLC-Q-TOF-MS product detection” value (SpC4H) was “SpC4H was able to catalyze the production of 4-coumaric acid from cinnamic acid”.

In the case of `COc1c(O)cc2oc(-c3ccc(O)cc3)cc(=O)c2c1O` [HD, hispidulin], the “HPLC-DAD / UPLC-Q-TOF-MS product detection” value (SpUGT2) is reported as “SpUGT1, SpUGT2, and SpUGT3 produced homoplantaginin from hispidulin in vitro”, the “HPLC-DAD / UPLC-Q-TOF-MS product detection” value (SpUGT1) is reported as “SpUGT1, SpUGT2, and SpUGT3 produced homoplantaginin from hispidulin in vitro” and the “HPLC-DAD / UPLC-Q-TOF-MS product detection” value (SpUGT3) is reported as “SpUGT1, SpUGT2, and SpUGT3 produced homoplantaginin from hispidulin in vitro”.

For `O=C(/C=C/c1ccc(O)cc1)c1c(O)cc(O)cc1O` [NC, naringenin chalcone], the “HPLC-DAD / UPLC-Q-TOF-MS product detection” value (SpCHI) was “naringenin chalcone was completely consumed in the sample group to generate naringenin”.

For `O=C1C[C@@H](c2ccc(O)cc2)Oc2cc(O)cc(O)c21` [NG, naringenin], the “HPLC-DAD / UPLC-Q-TOF-MS product detection” value (SpFNS) was “SpFNS produced apigenin from naringenin”.

In the case of `N[C@@H](Cc1ccccc1)C(=O)O` [Phe, phenylalanine], the “HPLC-DAD / UPLC-Q-TOF-MS product detection” value (SpPAL) is reported as “SpPAL can catalyze the formation of cinnamic acid from phenylalanine”.

`O=c1cc(-c2ccc(O)cc2)oc2cc(O)c(O)c(O)c12` [SA, scutellarein] was tested, and the “HPLC-DAD / UPLC-Q-TOF-MS product detection” value (SpF6OMT1) was “SpF6OMT1 and SpF6OMT2 converted scutellarein into hispidulin” and the “HPLC-DAD / UPLC-Q-TOF-MS product detection” value (SpF6OMT2) was “SpF6OMT1 and SpF6OMT2 converted scutellarein into hispidulin”.
